From patent US5098933A, “Pharmaceutically useful Michael addition products of unsaturated aldehydes and ketones and ascorbic acid” (Theracel Corporation, priority 1990, dated 1992)
Like-named read-outs stand apart in the source and are kept apart here.

Experiments:
[1] = test system: plaque forming cells, antibody specific to sheep red blood cells; assay: Jerne Hemolytic Plaque Assay; format: in vivo, mice
Description: This assay measures the IgM or IgG isotypes of specific antibody produced by antigen used to immunize the mice. […] The direct assay detects IgM and the indirect assay detects IgG-specific antibody.
Washed spleen cells are added to an agarose (FMC, Rockland, Me.) preparation containing sheep red blood cells (SRBC) and guinea pig complement. A drop of this mixture is transferred to a small petri dish; a cover slip is then placed over the drop to flatten it. The agarose prep is allowed to solidify. Then, the dishes are placed in a small humidified changer inside a CO-2 incubator overnight.
Small pinpoint cleared areas (plaques) will be observed under the cover slip. The cleared areas are caused by antibody, specific to the SRBC's being released by stimulated spleen cells and in conjunction with the complement, lyse surrounding SRBC's. These plaque forming cells (PFC's) are counted, and calculations are performed to obtain PFC's per […] spleen cells.
1. Spleens are harvested from mice according to a standard procedure and adjusted to a final concentration of 20% in […].
14. Count and record the number of hemolytic plaques per plate. Average plaque counts between the duplicate sets. Multiply the average number of plaques per group by 2.5 to obtain the number of plaque forming cells per million spleen cells.

[2] = test system: T- and B- lymphocyte isolated from mouse spleens; assay: Lymphocyte Blastogenesis Assay; format: in vivo; conditions: for RPMI CONTROL: no mitogen (Table 9); for activation at 25 mg/kg / activation at 50 mg/kg / activation at 100 mg/kg / activation at 200 mg/kg: Mus musculus, Lymphocyte
From the text: This assay measures the ability of the compound under test to affect DNA synthesis and mitosis of T- and B- lymphocyte isolated from mouse spleens.
Mitogens are substances which stimulate DNA synthesis and mitosis. The mitogens used in these studies were phytohemaglutinin (PHA) which is isolated from the red kidney bean and concanavalin-A (Con-A) which is isolated form the jack bean. Con-A binds to specific receptors (glycoproteins) containing mannosyl or glycosyl moieties and stimulates all murine T-cells to synthesize DNA, divide, and release lymphokines. Con-A in a soluble form allows distinction between T- and B-cells in the mouse, because although both T- and B-cells can bind 106 molecules of Con-A per cell, only T-cells are stimulated when this lectin is presented in a soluble form. PHA stimulates only subpopulations, T-2 cells, of T-cells in the mouse. Also, Con-A stimulates the production of cytokines such as Interleukin-2 (IL-2). In humans, both T- and B-cells are probably stimulated. The activation of B-cells by PHA may be indirect and mediated by the release of soluble mediators from PHA-activated T-cells.
The lymphocyte blastogenesis test is a method to assess the ability of immunocompetent T- or B-cells to respond to a polyclonal mitogen (i.e. PHA or Con-A) or a specific antigen. It may be performed on lymphocytes obtained from mice treated with immunostimulators in vivo or the entire assay can be performed in vitro. The assay as described below uses minimal doses of polyclonal mitogens to induce blastogenesis (proliferation measure by DNA synthesis), in order to be able to assess the phenomena of amplification.
1. Sacrifice two mice/experimental group by cervical dislocation.
14. […]
15. Include in the experiment a control plate which contains the same cells group as above, but receive a 0.1 ml of media instead of mitogen.
18. After 48 hours all wells receive 0.025 mls of a 0.4 microcurie/ml solution of C-14 methyl thymidine and incubate at 37 C, 5% CO-2 for 18 hours.

SMILES: CC(=O)CCC1(O)C(=O)OC2C(O)COC21O (stereo not drawn) [KBBL, 2-(3-Ketobutyl)-2-Hydroxy-3-Keto-4-Dihydroxyethyl Butyrolactone <3, 6> Cyclohemiketal]
- % INCREASE ([1]; 50 mg/kg (Table 11)): 70.2%
- PFC ([1]; 50 mg/kg (Table 11)): 36.0 PFC/1 MILLION CELLS
- % INCREASE ([1]; 100 mg/kg (Table 11)): 104.3%
- PFC ([1]; 100 mg/kg (Table 11)): 48.0 PFC/1 MILLION CELLS
- % INCREASE ([1]; 200 mg/kg (Table 11)): 106.4%
- PFC ([1]; 200 mg/kg (Table 11)): 48.5 PFC/1 MILLION CELLS
- CON-A 1.5 ug ([2]; 25 mg/kg (Table 9)): 3572
- CON-A 2.25 ug ([2]; 25 mg/kg (Table 9)): 5398
- PHA 10.5 ug ([2]; 25 mg/kg (Table 9)): 7935
- PHA 14 ug ([2]; 25 mg/kg (Table 9)): 10994
- RPMI CONTROL ([2]; 25 mg/kg): 255
- CON-A 1.5 ug ([2]; 50 mg/kg (Table 9)): 2539
- CON-A 2.25 ug ([2]; 50 mg/kg (Table 9)): 5802
- PHA 10.5 ug ([2]; 50 mg/kg (Table 9)): 4579
- PHA 14 ug ([2]; 50 mg/kg (Table 9)): 7295
- RPMI CONTROL ([2]; 50 mg/kg): 92
- CON-A 1.5 ug ([2]; 100 mg/kg (Table 9)): 1051
- CON-A 2.25 ug ([2]; 100 mg/kg (Table 9)): 3056
- PHA 10.5 ug ([2]; 100 mg/kg (Table 9)): 3540
- PHA 14 ug ([2]; 100 mg/kg (Table 9)): 4878
- RPMI CONTROL ([2]; 100 mg/kg): 33
- CON-A 1.5 ug ([2]; 200 mg/kg (Table 9)): 2571
- CON-A 2.25 ug ([2]; 200 mg/kg (Table 9)): 6891
- PHA 14 ug ([2]; 200 mg/kg (Table 9)): 6963
- RPMI CONTROL ([2]; 200 mg/kg): 55
- activation at 25 mg/kg ([2]; 25 mg/kg (Table 9), read-out: % INCR. (CON-A 1.5 ug)): 663%
- activation at 25 mg/kg ([2]; 25 mg/kg (Table 9), read-out: % INCR. (CON-A 2.25 ug)): 260%
- activation at 25 mg/kg ([2]; 25 mg/kg (Table 9), read-out: % INCR. (PHA 10.5 ug)): 356%
- activation at 25 mg/kg ([2]; 25 mg/kg (Table 9), read-out: % INCR. (PHA 14 ug)): 373%
- activation at 50 mg/kg ([2]; 50 mg/kg (Table 9), read-out: % INCR. (CON-A 1.5 ug)): 443%
- activation at 50 mg/kg ([2]; 50 mg/kg (Table 9), read-out: % INCR. (CON-A 2.25 ug)): 285%
- activation at 50 mg/kg ([2]; 50 mg/kg (Table 9), read-out: % INCR. (PHA 10.5 ug)): 163%
- activation at 50 mg/kg ([2]; 50 mg/kg (Table 9), read-out: % INCR. (PHA 14 ug)): 214%
- activation at 100 mg/kg ([2]; 100 mg/kg (Table 9), read-out: % INCR. (CON-A 1.5 ug)): 54%
- activation at 100 mg/kg ([2]; 100 mg/kg (Table 9), read-out: % INCR. (CON-A 2.25 ug)): 103%
- activation at 100 mg/kg ([2]; 100 mg/kg (Table 9), read-out: % INCR. (PHA 10.5 ug)): 103%
- activation at 100 mg/kg ([2]; 100 mg/kg (Table 9), read-out: % INCR. (PHA 14 ug)): 110%
- activation at 200 mg/kg ([2]; 200 mg/kg (Table 9), read-out: % INCR. (CON-A 1.5 ug)): 449%
- activation at 200 mg/kg ([2]; 200 mg/kg (Table 9), read-out: % INCR. (CON-A 2.25 ug)): 357%
- activation at 200 mg/kg ([2]; 200 mg/kg (Table 9), read-out: % INCR. (PHA 10.5 ug)): 171%
- activation at 200 mg/kg ([2]; 200 mg/kg (Table 9), read-out: % INCR. (PHA 14 ug)): 200%
- stimulation at all doses ([2]; all doses of PHA and Con-A, 25-200 mg/kg): stimulatory at all the doses of PHA and Con-A tested
